molecular target: human DP2 (Homo sapiens (Human), UniProt Q9Y5Y4); assay: DP-2 Binding Inhibition Assay (3H-PGD2 binding to membranes of K562 cells expressing DP2); details: EC50 (Nm) 1% HSA, inhibition of 3H-PGD2 binding, 1% HSA
Protocol: DP-2 Binding Inhibition Assay
The coding sequence of human DP2 was introduced into the human Leukemic cell line K562 by electroporation and stable clones expressing DP2 were obtained by limiting dilution followed by cell surface staining with a rat monoclonal antibody specific for human DP2. Membranes were prepared from one of these DP2 expressing clones and used to determine the ability of compounds of the present invention to inhibit binding of prostaglandin D2 (PGD2) to its receptor DP2 in the presence of one or more of the following serum protein concentrations, 0.1% BSA, 1% HSA or 4% HSA, by the following procedure. Membranes (1.25 μg/well for 0.1% BSA and 6 μg/well for 1% or 4% HSA) were mixed with ^3H-labeled PGD2 and various concentrations of test compounds in 150 μL of binding buffer (50 mM Tris-HCl, pH 7.4, 40 mM MgCl2, 0.1% bovine serum albumin, 0.1% NaN3) in 96-well U-bottom polypropylene plates. After incubation for 60 minutes at room temperature, the assay was transferred to a filtration plate (#MAFB; Millipore Corporation, Bedford, Mass.), and washed three times with binding buffer. Radioactivity was measured by a scintillation counter (TopCount; PerkinElmer Life Sciences, Boston, Mass.). Nonspecific binding was determined by incubations in the presence of 1 μM unlabeled PGD2 or 5 μM of a known DP2 antagonist. EC50 values for inhibition of binding were determined for each compound tested from the inflexion point of a standard 4-parameter logistical curve fitted to the values obtained.

human DP2, sequence (Q9Y5Y4 whole entry): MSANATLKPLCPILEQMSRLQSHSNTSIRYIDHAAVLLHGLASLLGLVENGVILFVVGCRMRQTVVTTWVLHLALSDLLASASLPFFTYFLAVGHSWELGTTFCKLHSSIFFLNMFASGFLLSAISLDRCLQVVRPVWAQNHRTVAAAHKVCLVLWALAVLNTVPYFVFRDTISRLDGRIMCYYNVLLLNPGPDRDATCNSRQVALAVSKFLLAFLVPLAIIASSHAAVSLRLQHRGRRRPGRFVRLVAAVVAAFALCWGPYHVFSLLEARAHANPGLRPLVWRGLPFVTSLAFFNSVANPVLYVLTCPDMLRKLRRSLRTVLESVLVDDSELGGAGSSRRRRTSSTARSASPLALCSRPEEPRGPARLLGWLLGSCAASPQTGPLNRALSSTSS

| SMILES | EC50 |
| --- | --- |
| O=C(NCCc1ccc(Cl)cc1)c1ccc(Oc2cc3c(cc2Cl)C(C(=O)O)CCO3)cc1 (single isomer, unassigned) [Example 11 Enantiomer 2, 6-Chloro-7-(4-(4-chlorophenethylcarbamoyl)phenoxy)chroman-4-carboxylic acid] | 9.3 nM |

same assay, conditions: EC50 (nM) 4% HSA, inhibition of 3H-PGD2 binding, 4% HSA

| SMILES | EC50 |
| --- | --- |
| O=C(NCCc1ccc(Cl)cc1)c1ccc(Oc2cc3c(cc2Cl)C(C(=O)O)CCO3)cc1 (single isomer, unassigned) [Example 11 Enantiomer 2, 6-Chloro-7-(4-(4-chlorophenethylcarbamoyl)phenoxy)chroman-4-carboxylic acid] | 111 nM |
| O=C(NC1CCC(c2ccccc2)CC1)c1ccc(Oc2cc3c(cc2Cl)C(C(=O)O)CCO3)cc1 (single isomer, unassigned) [Example 155 peak 1, 6-chloro-7-(4-(4-phenylcyclohexylcarbamoyl)phenoxy)chroman-4-carboxylic acid, isomer 1] | 399 nM |
| O=C(NCCc1ccccc1)c1ccc(Oc2cc3c(cc2Cl)C(C(=O)O)CCO3)cc1 (stereo not drawn) [Example 12, Sodium 6-chloro-7-(4-(phenethylcarbamoyl)phenoxy)chroman-4-carboxylate] | 794 nM |

same assay, conditions: assay described in Example A

| SMILES | relative activity of the enantiomers in the DP2 binding inhibition assay |
| --- | --- |
| O=C(NCCc1ccc(Cl)cc1)c1ccc(Oc2cc3c(cc2Cl)C(C(=O)O)CCO3)cc1 (single isomer, unassigned) [Example 11 Enantiomer 2, 6-Chloro-7-(4-(4-chlorophenethylcarbamoyl)phenoxy)chroman-4-carboxylic acid] | more potent DP2 binding enantiomer |

same assay, conditions: read-out: EC50 (Nm) 1% HSA; inhibition of 3H-PGD2 binding, 1% HSA

| SMILES | EC50 |
| --- | --- |
| N#Cc1cc2c(cc1Oc1ccc(C(=O)NC3CC3c3ccccc3)cc1)OCCC2C(=O)O (stereo not drawn) [Example 47, 7-(4-((2-Phenylcyclopropyl)carbamoyl)phenoxy)-6-cyano-3,4-dihydro-2H-chromene-4-carboxylic acid] | 12.1 nM |
| N#Cc1cc2c(cc1Oc1ccc(C(=O)NC3Cc4ccc(Cl)cc4C3)cc1)OCCC2C(=O)O (stereo not drawn) [Example 73, 7-(4-(5-Chloro-2,3-dihydro-1H-inden-2-ylcarbamoyl)phenoxy)-6-cyanochroman-4-carboxylic acid] | 42.4 nM |
| N#Cc1cc2c(cc1Oc1ccc(C(=O)NC3COc4ccccc4C3)cc1)OCCC2C(=O)O (stereo not drawn) [Example 52, 7-(4-(chroman-3-ylcarbamoyl)phenoxy)-6-cyanochroman-4-carboxylic acid] | 90.8 nM |
| N#Cc1cc2c(cc1Oc1ccc(C(=O)Nc3ccc(Cl)cc3)cc1)OCCC2C(=O)O (stereo not drawn) [Example 74, 7-(4-(4-Chlorophenylcarbamoyl)phenoxy)-6-cyanochroman-4-carboxylic acid] | 23.3 nM |
| COc1cc(C2CC2)ccc1CCNC(=O)c1ccc(Oc2cc3c(cc2Cl)C(C(=O)O)CCO3)cc1 (stereo not drawn) [Example 36, Sodium 6-chloro-7-(4-(4-cyclopropyl-2-methoxyphenethylcarbamoyl)phenoxy)chroman-4-carboxylate] | 17.3 nM |
| O=C(NCCc1ccc(Cl)cc1)c1ccc(Oc2ccc3c(c2)OCCC3C(=O)O)cc1 (stereo not drawn) [Example 128, 7-(4-(4-chlorophenyethylcarbamoyl)phenoxy)chroman-4-carboxylic acid] | 108 nM |
| N#Cc1cc2c(cc1Oc1ccc(C(=O)Nc3ccc(Cl)c(Cl)c3)cc1)OCCC2C(=O)O (stereo not drawn) [Example 8, 6-Cyano-7-(4-(3,4-dichlorophenylcarbamoyl)phenoxy)chroman-4-carboxylic acid] | 16 nM |

same assay, conditions: read-out: EC50 (nM) 4% HSA; inhibition of 3H-PGD2 binding, 4% HSA

| SMILES | EC50 |
| --- | --- |
| O=C(NCC/C=C\c1ccc(Cl)cc1Cl)c1ccc(Oc2cc3c(cc2Cl)C(C(=O)O)CCO3)cc1 (stereo not drawn) [Example 18, Sodium (Z)-6-chloro-7-(4-(4-(2,4-dichlorophenyl)but-3-enylcarbamoyl)phenoxy)chroman-4-carboxylate] | 502 nM |
| O=C(NCC/C=C\c1ccccc1Cl)c1ccc(Oc2cc3c(cc2Cl)C(C(=O)O)CCO3)cc1 (stereo not drawn) [Example 16, Sodium (Z)-6-chloro-7-(4-(4-(2-chlorophenyl)but-3-enylcarbamoyl)phenoxy)chroman-4-carboxylate] | 318 nM |
| O=C(NC1CCC(c2cccc(Cl)c2)C1)c1ccc(Oc2cc3c(cc2Cl)C(C(=O)O)CCO3)cc1 (stereo not drawn) [Example 167, 6-Chloro-7-(4-(3-(3-chlorophenyl)cyclopentylcarbamoyl)phenoxy)chroman-4-carboxylic acid] | 179 nM |
| COc1ccc(CCNC(=O)c2ccc(Oc3cc4c(cc3Cl)C(C(=O)O)CCO4)cc2)cc1OC (stereo not drawn) [Example 141, Sodium 6-chloro-7-(4-(3,4-dimethoxyphenethylcarbamoyl)phenoxy)chroman-4-carboxylate] | 1000 nM |
| O=C(NC1CCN(c2ccc(Cl)cc2Cl)CC1)c1ccc(Oc2cc3c(cc2Cl)C(C(=O)O)CCO3)cc1 (stereo not drawn) [Example 124, Sodium 6-chloro-7-(4-(1-(2,4-dichlorophenyl)piperidin-4-ylcarbamoyl)phenoxy)chroman-4-carboxylate] | 841 nM |
| O=C(NCCOc1ccccc1)c1ccc(Oc2cc3c(cc2Cl)C(C(=O)O)CCO3)cc1 (stereo not drawn) [Example 220, 6-chloro-7-(4-(2-phenoxyethylcarbamoyl)phenoxy)chroman-4-carboxylic acid] | > 2000 nM |
| O=C(NC1CCC(c2ccc(Cl)cc2)C1)c1ccc(Oc2cc3c(cc2Cl)C(C(=O)O)CCO3)cc1 (stereo not drawn) [Example 168, Sodium 6-chloro-7-(4-(3-(4-chlorophenyl)cyclopentylcarbamoyl)phenoxy)chroman-4-carboxylate] | 302 nM |
| Cc1cc(C(=O)NCCc2ccc(Cl)cc2Cl)ccc1Oc1cc2c(cc1Cl)C(C(=O)O)CCO2 (stereo not drawn) [Example 182, Sodium 6-chloro-7-(4-(2,4-dichlorophenethylcarbamoyl)-2-methylphenoxy)chroman-4-carboxylate] | 151 nM |
| O=C(NCCc1cccc2c1OCO2)c1ccc(Oc2cc3c(cc2Cl)C(C(=O)O)CCO3)cc1 (stereo not drawn) [Example 193, sodium 7-(4-(2-(benzo[d][1,3]dioxol-4-yl)ethylcarbamoyl)phenoxy)-6-chlorochroman-4-carboxylate] | 640 nM |
| O=C(NCC(F)(F)c1ccc(Cl)cc1)c1ccc(Oc2cc3c(cc2Cl)C(C(=O)O)CCO3)cc1 (stereo not drawn) [Example 195, sodium 6-chloro-7-(4-(2-(4-chlorophenyl)-2,2-difluoroethylcarbamoyl)phenoxy)chroman-4-carboxylate] | 1150 nM |
| O=C(NC1CCC(c2ccc(Cl)c(Cl)c2)C1)c1ccc(Oc2cc3c(cc2Cl)C(C(=O)O)CCO3)cc1 (stereo not drawn) [Example 173, Sodium 6-chloro-7-(4-(3-(3,4-dichlorophenyl)cyclopentylcarbamoyl)phenoxy)chroman-4-carboxylate] | 327 nM |
| CC1(C)CCC(NC(=O)c2ccc(Oc3cc4c(cc3Cl)C(C(=O)O)CCO4)cc2)CC1 (stereo not drawn) [Example 157, 6-Chloro-7-(4-(4,4-dimethylcyclohexylcarbamoyl)phenoxy)chroman-4-carboxylic acid] | 1580 nM |
| O=C(NCC1Cc2ccccc2C1)c1ccc(Oc2cc3c(cc2Cl)C(C(=O)O)CCO3)cc1 (stereo not drawn) [Example 111, Sodium 6-chloro-7-(4-((2,3-dihydro-1H-inden-2-yl)methylcarbamoyl)phenoxy)chroman-4-carboxylate] | 174 nM |
| CSc1ccc(CCNC(=O)c2ccc(Oc3cc4c(cc3Cl)C(C(=O)O)CCO4)cc2)cc1 (stereo not drawn) [Example 118, Sodium 6-chloro-7-(4-(4-(methylthio)phenethylcarbamoyl)phenoxy)chroman-4-carboxylate] | 426 nM |
| COc1ccc(C2CCC(NC(=O)c3ccc(Oc4cc5c(cc4Cl)C(C(=O)O)CCO5)cc3)C2)cc1 (stereo not drawn) [Example 174, Sodium 6-chloro-7-(4-(3-(4-methoxyphenyl)cyclopentylcarbamoyl)phenoxy)chroman-4-carboxylate] | 723 nM |
| Cc1ccc(C2CCC(NC(=O)c3ccc(Oc4cc5c(cc4Cl)C(C(=O)O)CCO5)cc3)C2)cc1 (stereo not drawn) [Example 166, 6-Chloro-7-(4-(3-p-tolylcyclopentylcarbamoyl)phenoxy)chroman-4-carboxylic acid] | 272 nM |
| O=C(NCCc1ccc(Cl)cc1-c1ccccc1Cl)c1ccc(Oc2cc3c(cc2Cl)C(C(=O)O)CCO3)cc1 (stereo not drawn) [Example 33, Sodium 6-chloro-7-(4-(2-(2′,5-dichlorobiphenyl-2-yl)ethylcarbamoyl)phenoxy)chroman-4-carboxylate] | 126 nM |
| COc1cc(C2CC2)ccc1CCNC(=O)c1ccc(Oc2cc3c(cc2Cl)C(C(=O)O)CCO3)cc1 (stereo not drawn) [Example 36, Sodium 6-chloro-7-(4-(4-cyclopropyl-2-methoxyphenethylcarbamoyl)phenoxy)chroman-4-carboxylate] | 93 nM |
| O=C(NCCc1cc(F)ccc1Oc1ccc(Cl)cc1Cl)c1ccc(Oc2cc3c(cc2Cl)C(C(=O)O)CCO3)cc1 (stereo not drawn) [Example 213, sodium 6-chloro-7-(4-(2-(2,4-dichlorophenoxy)-5-fluorophenethylcarbamoyl)phenoxy)chroman-4-carboxylate] | 45.1 nM |
| CC(C)(C)c1cccc(NC(=O)c2ccc(Oc3cc4c(cc3C#N)C(C(=O)O)CCO4)cc2)c1 (stereo not drawn) [Example 134, 7-(4-(3-tert-Butylphenylcarbamoyl)phenoxy)-6-cyanochroman-4-carboxylic acid] | 112 nM |
| O=C(NCC(O)c1ccc(Cl)cc1Cl)c1ccc(Oc2cc3c(cc2Cl)C(C(=O)O)CCO3)cc1 (stereo not drawn) [Example 197, sodium 6-chloro-7-(4-(2-(2,4-dichlorophenyl)-2-hydroxyethylcarbamoyl)phenoxy)chroman-4-carboxylate] | 689 nM |
| O=C(NCCc1cccc(Cl)c1)c1ccc(Oc2cc3c(cc2Cl)C(C(=O)O)CCO3)cc1 (stereo not drawn) [Example 150, Sodium 6-chloro-7-(4-(3-chlorophenethylcarbamoyl)phenoxy)chroman-4-carboxylate] | 341 nM |
| O=C(NCCc1ccc(Cl)cc1)c1ccc(Oc2ccc3c(c2)OCCC3C(=O)O)cc1 (stereo not drawn) [Example 128, 7-(4-(4-chlorophenyethylcarbamoyl)phenoxy)chroman-4-carboxylic acid] | 980 nM |
| O=C(NCCc1ccc(F)cc1Cl)c1ccc(Oc2cc3c(cc2Cl)C(C(=O)O)CCO3)cc1 (stereo not drawn) [Example 97, Sodium 6-chloro-7-(4-(2-chloro-4-fluorophenethylcarbamoyl)phenoxy)chroman-4-carboxylate] | 190 nM |
